Data set [1] addresses Receptor-type tyrosine-protein kinase FLT3 (Homo sapiens, UniProt P36888, D835Y).
Description: Inhibition of human FLT3 D835Y mutant preincubated for 15 mins followed by poly(Glu:Tyr) substrate addition for 30 mins in presence of [gamma-32P]ATP by TR-FRET assay
Data set [2] has as its target Tyrosine-protein kinase Blk (Homo sapiens) (UniProt P51451). The experiment in a line: Inhibition of BLK (unknown origin) assessed as remaining activity at 10 uM preincubated for 15 mins followed by substrate addition for 30 mins in presence of [gamma-32P]ATP by […] assay.
Data set [3] concerns the target T1, Tyrosine-protein kinase ABL1 (Homo sapiens, UniProt P00519). The experiment in a line: Inhibition of recombinant human ABL1 expressed in insect cells assessed as remaining activity at 10 uM preincubated for 15 mins followed by poly(Glu:Tyr) substrate addition for 30 mins in presence of [gamma-32P]ATP by […] assay. On the technique in general: TR-FRET usually uses a lanthanide donor and a delayed reading to cut background.

Data set [4] deals with Mitogen-activated protein kinase 9 (Homo sapiens) (UniProt P45984). The data set can be described thus: Inhibition of recombinant human JNK2alpha2 expressed in insect Sf21 cells assessed as remaining activity at 10 uM preincubated for 15 mins followed by ATF2 substrate addition for 30 mins in presence of [gamma-32P]ATP by […] assay.
Data set [5] has as its target Vascular endothelial growth factor receptor 1 (Homo sapiens) (UniProt P17948). The data set can be described thus: Inhibition of recombinant human FLT1 expressed in insect Sf21 cells assessed as remaining activity at 10 uM preincubated for 15 mins followed by poly(Glu:Tyr) substrate addition for 30 mins in presence of [gamma-32P]ATP by […] assay.
A further data set can be described thus: cells. The conditions noted are these: Homo sapiens, K562, 48 h.
Data set [6] addresses T2, Receptor-type tyrosine-protein kinase FLT3 (Homo sapiens, UniProt P36888).
T2 sequence (P36888 whole entry): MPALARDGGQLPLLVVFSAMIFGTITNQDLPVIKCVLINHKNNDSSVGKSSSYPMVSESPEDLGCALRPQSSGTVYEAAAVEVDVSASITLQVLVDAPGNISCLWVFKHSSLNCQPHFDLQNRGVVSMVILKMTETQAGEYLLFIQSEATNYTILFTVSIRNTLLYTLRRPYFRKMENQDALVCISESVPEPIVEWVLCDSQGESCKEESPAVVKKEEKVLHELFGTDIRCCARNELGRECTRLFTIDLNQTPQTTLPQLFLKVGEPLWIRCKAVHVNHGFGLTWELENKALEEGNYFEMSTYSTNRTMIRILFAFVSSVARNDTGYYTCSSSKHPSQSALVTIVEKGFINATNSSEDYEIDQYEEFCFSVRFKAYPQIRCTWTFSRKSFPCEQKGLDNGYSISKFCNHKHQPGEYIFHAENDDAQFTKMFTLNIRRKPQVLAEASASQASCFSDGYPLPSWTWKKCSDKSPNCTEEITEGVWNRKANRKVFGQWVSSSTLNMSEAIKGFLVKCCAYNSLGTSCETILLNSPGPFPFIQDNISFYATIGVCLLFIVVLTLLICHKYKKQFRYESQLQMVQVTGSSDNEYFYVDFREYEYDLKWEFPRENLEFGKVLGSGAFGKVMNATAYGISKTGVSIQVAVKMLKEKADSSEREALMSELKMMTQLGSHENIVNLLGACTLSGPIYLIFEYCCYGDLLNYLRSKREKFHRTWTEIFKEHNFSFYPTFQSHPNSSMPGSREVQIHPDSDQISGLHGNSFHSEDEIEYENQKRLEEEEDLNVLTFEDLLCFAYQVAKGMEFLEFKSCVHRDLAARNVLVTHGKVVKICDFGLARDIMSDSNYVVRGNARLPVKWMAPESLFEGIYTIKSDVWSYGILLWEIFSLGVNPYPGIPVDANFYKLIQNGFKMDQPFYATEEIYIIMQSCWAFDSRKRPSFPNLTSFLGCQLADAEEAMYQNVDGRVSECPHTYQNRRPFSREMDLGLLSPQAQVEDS
The data set can be described thus: biochemical. In kind it is cell-based, Sf21.
Description: Inhibition of recombinant human FLT3 expressed in insect Sf21 cells preincubated for 15 mins followed by poly(Glu:Tyr) substrate addition for 30 mins in presence of [gamma-32P]ATP by TR-FRET assay

Data set [7] deals with Serine/threonine-protein kinase pim-1 (Homo sapiens) (UniProt P11309). The data set can be described thus: Inhibition of recombinant human PIM1 expressed in Escherichia coli assessed as remaining activity at 10 uM preincubated for 15 mins followed by S6 kinase/Rsk2 substrate peptide 2 addition for 30 mins in presence of [gamma-32P]ATP by […] assay.
Chain of Serine/threonine-protein kinase pim-1 (Homo sapiens) (P11309 whole entry, looked up): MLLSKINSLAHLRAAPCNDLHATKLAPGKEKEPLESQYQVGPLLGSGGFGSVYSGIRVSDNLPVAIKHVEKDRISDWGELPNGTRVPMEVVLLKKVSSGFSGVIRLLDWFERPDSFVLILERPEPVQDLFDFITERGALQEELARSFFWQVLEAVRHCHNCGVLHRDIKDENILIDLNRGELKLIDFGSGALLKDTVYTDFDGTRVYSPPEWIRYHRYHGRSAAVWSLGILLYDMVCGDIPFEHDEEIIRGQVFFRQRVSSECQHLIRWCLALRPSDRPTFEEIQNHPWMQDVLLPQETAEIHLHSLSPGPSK
Data set [8] is described as follows: Metabolic stability in human liver microsomes assessed as compound remaining at 1 uM after 30 mins in presence of NADPH by HPLC-MS analysis. To be noted: read-out: Stability. In kind it is ADME. (In general: Liver microsomes are a subcellular fraction often used to study metabolism.)
The target of data set [9] is Inhibitor of nuclear factor kappa-B kinase subunit beta (Homo sapiens) (UniProt O14920). The experiment in a line: Inhibition of recombinant human IKK-beta expressed in insect Sf21 cells assessed as remaining activity at 10 uM preincubated for 15 mins followed by IKKtide substrate addition for 30 mins in presence of [gamma-32P]ATP by […] assay.
Chain of Inhibitor of nuclear factor kappa-B kinase subunit beta (Homo sapiens) (O14920 whole entry): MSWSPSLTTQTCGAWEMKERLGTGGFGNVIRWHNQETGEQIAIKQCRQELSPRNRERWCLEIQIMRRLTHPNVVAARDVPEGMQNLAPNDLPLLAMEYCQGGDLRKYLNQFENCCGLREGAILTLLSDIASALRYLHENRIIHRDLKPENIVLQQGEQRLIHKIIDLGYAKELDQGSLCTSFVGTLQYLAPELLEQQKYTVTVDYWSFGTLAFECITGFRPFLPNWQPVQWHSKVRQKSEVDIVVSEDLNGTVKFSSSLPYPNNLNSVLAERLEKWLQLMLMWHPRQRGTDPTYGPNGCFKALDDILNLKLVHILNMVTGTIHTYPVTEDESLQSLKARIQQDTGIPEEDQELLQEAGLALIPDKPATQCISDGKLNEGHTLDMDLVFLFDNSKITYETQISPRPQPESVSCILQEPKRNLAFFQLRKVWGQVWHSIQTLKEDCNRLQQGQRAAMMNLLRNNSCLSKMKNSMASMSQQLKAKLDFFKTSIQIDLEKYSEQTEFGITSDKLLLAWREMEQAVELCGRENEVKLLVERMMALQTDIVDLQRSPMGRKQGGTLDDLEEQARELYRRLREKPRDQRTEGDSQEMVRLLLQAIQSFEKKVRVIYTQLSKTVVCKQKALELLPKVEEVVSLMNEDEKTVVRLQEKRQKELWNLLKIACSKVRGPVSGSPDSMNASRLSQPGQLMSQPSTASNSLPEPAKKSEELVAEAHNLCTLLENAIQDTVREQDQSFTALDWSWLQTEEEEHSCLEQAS
Data set [10] concerns the target T1, Tyrosine-protein kinase ABL1. The experiment in a line: Inhibition of recombinant human ABL1 expressed in insect cells preincubated for 15 mins followed by poly(Glu:Tyr) substrate addition for 30 mins in presence of [gamma-32P]ATP by […] assay.
Data set [11] concerns the target Dual specificity mitogen-activated protein kinase kinase 6 (Homo sapiens) (UniProt P52564). The experiment in a line: Inhibition of human MKK6 assessed as remaining activity at 10 uM in presence of [gamma-32P]ATP by […] assay.
Data set [12] concerns the target Aurora kinase A (Homo sapiens) (UniProt O14965). The experiment in a line: Inhibition of recombinant human AURORA A expressed in insect Sf21 cells assessed as remaining activity at 10 uM preincubated for 15 mins followed by Kemptide substrate addition for 30 mins in presence of [gamma-32P]ATP by […] assay.
The nature of data set [13]: Metabolic stability in rat liver microsomes assessed as compound remaining at 1 uM after 30 mins in presence of NADPH by HPLC-MS analysis. The class given is ADME. To be noted: liver microsomes, read-out: Stability.
For data set [14], the target named is Tyrosine-protein kinase BTK (Homo sapiens) (UniProt Q06187). The data set can be described thus: Inhibition of recombinant human BTK expressed in insect Sf21 cells assessed as remaining activity at 10 uM preincubated for 15 mins followed by poly(Glu:Tyr) substrate addition for 30 mins in presence of [gamma-32P]ATP by […] assay.
Chain of Tyrosine-protein kinase BTK (Homo sapiens) (Q06187 whole entry): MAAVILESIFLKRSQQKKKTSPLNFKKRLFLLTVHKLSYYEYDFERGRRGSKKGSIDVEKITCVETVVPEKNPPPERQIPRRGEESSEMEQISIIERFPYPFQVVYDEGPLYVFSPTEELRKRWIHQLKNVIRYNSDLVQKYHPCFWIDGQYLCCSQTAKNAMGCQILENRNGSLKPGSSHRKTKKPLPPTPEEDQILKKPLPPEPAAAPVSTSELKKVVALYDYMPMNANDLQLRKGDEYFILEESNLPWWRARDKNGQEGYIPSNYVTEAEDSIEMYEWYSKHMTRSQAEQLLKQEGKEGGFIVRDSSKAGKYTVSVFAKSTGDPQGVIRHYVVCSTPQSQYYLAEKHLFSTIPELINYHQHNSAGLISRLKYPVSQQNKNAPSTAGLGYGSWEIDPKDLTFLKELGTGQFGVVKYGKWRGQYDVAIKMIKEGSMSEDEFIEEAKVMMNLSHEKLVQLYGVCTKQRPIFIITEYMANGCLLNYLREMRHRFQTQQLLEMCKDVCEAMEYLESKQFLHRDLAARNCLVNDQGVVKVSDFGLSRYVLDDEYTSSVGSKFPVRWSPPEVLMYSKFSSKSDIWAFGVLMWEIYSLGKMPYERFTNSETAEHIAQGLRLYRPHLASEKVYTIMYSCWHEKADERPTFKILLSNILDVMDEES
Data set [15] addresses Ribosomal protein S6 kinase alpha-5 (Homo sapiens) (UniProt O75582). The data set can be described thus: Inhibition of recombinant human MSK1 expressed in insect Sf21 cells assessed as remaining activity at 10 uM preincubated for 15 mins followed by Crosstide KK substrate addition for 30 mins in presence of [gamma-32P]ATP by […] assay.
Data set [16] has as its target Mitogen-activated protein kinase 12 (Homo sapiens) (UniProt P53778). The data set can be described thus: Inhibition of human SAPK3 assessed as remaining activity at 10 uM in presence of [gamma-32P]ATP by […] assay.
Data set [17] concerns Tyrosine-protein kinase ABL1 (Homo sapiens), P00519 [T315I]. The experiment in a line: Inhibition of human ABL T315I mutant assessed as remaining activity at 10 uM preincubated for 15 mins followed by poly(Glu:Tyr) substrate addition for 30 mins in presence of [gamma-32P]ATP by […] assay.

pIC50: −log10 of the molar value.

Chain of Ribosomal protein S6 kinase alpha-5 (Homo sapiens) (O75582 whole entry, looked up): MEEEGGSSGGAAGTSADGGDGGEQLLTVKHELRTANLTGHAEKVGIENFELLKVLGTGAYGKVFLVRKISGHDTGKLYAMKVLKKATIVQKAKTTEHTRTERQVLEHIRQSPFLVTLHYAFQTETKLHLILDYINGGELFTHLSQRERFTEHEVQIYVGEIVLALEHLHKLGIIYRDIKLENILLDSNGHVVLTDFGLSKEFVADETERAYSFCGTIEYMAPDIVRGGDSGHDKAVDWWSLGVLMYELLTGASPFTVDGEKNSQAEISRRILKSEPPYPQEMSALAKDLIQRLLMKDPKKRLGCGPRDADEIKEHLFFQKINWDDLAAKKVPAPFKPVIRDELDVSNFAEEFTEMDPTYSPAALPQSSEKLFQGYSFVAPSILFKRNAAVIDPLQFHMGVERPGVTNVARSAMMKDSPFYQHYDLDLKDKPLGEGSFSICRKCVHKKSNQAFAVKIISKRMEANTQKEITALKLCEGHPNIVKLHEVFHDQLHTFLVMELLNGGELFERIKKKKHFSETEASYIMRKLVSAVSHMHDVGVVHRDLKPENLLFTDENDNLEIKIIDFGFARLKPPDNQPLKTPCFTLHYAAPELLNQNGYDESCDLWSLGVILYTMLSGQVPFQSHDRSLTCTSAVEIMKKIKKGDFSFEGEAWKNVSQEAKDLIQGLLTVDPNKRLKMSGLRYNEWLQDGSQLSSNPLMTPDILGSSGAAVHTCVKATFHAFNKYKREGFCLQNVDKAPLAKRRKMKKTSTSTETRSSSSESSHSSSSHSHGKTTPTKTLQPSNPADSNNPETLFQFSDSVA
Chain of Mitogen-activated protein kinase 12 (Homo sapiens) (P53778 whole entry): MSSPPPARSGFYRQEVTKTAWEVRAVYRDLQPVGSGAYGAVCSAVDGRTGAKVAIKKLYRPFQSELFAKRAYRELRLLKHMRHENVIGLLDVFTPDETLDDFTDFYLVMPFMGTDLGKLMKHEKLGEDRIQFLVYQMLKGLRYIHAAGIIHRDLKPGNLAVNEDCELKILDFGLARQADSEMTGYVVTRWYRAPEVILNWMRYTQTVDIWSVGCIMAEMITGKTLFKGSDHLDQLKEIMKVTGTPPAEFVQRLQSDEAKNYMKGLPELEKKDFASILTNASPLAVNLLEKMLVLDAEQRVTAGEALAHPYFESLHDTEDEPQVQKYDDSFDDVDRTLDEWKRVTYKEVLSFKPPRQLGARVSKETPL
Chain of Vascular endothelial growth factor receptor 1 (Homo sapiens) (P17948 whole entry): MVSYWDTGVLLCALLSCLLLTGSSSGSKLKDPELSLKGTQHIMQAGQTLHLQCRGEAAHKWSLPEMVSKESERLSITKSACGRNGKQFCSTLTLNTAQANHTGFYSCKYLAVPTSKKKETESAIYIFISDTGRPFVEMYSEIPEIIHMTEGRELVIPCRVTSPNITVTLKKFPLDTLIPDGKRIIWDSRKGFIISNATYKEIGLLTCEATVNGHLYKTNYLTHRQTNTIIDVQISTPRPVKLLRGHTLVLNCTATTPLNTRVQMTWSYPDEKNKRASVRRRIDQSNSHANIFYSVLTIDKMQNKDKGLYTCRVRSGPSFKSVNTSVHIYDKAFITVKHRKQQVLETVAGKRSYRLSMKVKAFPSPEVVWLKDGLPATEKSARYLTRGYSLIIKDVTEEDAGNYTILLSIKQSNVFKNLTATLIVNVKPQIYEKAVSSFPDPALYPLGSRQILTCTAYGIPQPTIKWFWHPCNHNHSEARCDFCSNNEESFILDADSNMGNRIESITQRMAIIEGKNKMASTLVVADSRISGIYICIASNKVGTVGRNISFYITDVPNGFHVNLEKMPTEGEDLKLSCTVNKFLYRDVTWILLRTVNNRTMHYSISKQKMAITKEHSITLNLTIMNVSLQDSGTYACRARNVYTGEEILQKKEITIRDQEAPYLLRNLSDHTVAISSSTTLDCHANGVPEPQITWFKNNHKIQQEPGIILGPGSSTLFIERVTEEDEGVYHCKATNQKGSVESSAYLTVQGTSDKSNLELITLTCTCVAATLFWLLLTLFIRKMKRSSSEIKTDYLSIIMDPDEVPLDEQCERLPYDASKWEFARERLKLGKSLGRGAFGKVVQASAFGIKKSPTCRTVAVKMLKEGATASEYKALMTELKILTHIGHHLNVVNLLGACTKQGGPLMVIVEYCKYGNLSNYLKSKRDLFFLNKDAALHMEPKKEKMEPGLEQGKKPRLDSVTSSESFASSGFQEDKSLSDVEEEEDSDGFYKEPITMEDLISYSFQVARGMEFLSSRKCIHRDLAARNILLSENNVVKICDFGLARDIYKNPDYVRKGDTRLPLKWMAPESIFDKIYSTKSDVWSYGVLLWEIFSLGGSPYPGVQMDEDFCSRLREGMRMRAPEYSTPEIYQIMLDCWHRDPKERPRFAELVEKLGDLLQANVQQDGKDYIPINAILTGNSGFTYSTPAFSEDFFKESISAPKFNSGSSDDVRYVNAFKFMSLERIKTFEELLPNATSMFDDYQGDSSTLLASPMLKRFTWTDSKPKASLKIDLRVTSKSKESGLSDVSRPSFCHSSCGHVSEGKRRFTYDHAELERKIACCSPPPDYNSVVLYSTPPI
Chain of Aurora kinase A (Homo sapiens) (O14965 whole entry): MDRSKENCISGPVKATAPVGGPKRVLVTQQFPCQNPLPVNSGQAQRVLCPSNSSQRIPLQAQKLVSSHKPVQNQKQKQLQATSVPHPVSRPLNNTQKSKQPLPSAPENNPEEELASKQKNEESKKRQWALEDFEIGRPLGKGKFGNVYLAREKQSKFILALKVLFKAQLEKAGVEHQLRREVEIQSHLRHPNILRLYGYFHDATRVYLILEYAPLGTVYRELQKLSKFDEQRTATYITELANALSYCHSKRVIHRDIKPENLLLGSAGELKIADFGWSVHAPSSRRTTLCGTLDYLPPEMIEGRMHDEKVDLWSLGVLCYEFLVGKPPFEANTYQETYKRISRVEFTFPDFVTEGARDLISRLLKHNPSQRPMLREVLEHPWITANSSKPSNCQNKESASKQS
Chain of Dual specificity mitogen-activated protein kinase kinase 6 (Homo sapiens) (P52564 whole entry): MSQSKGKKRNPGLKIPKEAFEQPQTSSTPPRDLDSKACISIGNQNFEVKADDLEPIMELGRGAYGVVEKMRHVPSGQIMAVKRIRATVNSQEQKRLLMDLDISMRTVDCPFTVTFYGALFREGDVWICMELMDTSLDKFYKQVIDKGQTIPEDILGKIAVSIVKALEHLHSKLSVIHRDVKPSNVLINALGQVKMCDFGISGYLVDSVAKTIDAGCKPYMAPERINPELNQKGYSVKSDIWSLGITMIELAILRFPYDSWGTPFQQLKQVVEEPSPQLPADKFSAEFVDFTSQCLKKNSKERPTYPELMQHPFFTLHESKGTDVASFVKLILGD
Description for cells: Growth inhibition of human K562 cells after 48 hrs by XTT assay

For the compound `CNCCOc1ccc(-c2sc3nc(-c4cccs4)nc(NN4C(=O)C=C(C)C4=O)c3c2C)cc1.Cl`, the negative logarithm of the IC50 (pIC50) (commonly the IC50 on a negative log10 scale, so that one unit is a factor of ten) is 7.99 in data set [1], 8.10 in data set [6] and 5.54 in data set [10]. In addition, the Activity in data set [2] amounted to 35%; in data set [3], 11%; in [4], 113%; in data set [5] it was 40%; in data set [7], 46%; in data set [9] it was 63%. Besides, the Activity in [11] was 102%; in data set [12], 67%; in data set [14], 83%; in data set [15], 110%; in data set [16], 99%; in data set [17] it was 44%. Also, the GI50 (commonly the concentration giving 50% growth inhibition) in “cells” was found to be 564 nM. Moreover, the remaining at 0.5 h, 1 µM in data set [8] is 79.8%; in [13], 67.1%.

The record behind these values is ChEMBL document CHEMBL3856191, “Structural modifications at the 6-position of thieno[2,3-d]pyrimidines and their effects on potency at FLT3 for treatment of acute myeloid leukemia” (Eur J Med Chem, 2016).
